Test results: patent US5543410A, “Pharmacological use of phthaloylhydrazide derivatives; combination and application thereof” (L.I.M.A.D. Limited, priority 1993, dated 1996)
Where two headings read alike, the source gives them in different places.

Tests used:
[1] = tested on: TA 100, TA 102, and TA 97 S. typhi strains; assay: Ames' bacterial mutagenicity test; details: 0.01 mg/ml to 2 mg/ml, rat liver microsome activation
[2] = tested on: acute intestinal infections
Experimental: 200 mg of the drug in an isotonic aqueous solution was administered to this patient.

[3] = tested on: proctosigmoiditis
Text: Treatment was provided for nine patients affected by proctosigmoiditis; their ages were between forty and fifty-five years. These patients had complained of irregular defecation, protrusion of the mucosae from the anus, and minor pain in the ileum, on the left side.
During visual examination of the intestine, it was observed that the mucosae of the rectal and sigmoid portions of the colon were affected by edema. In addition, images of the capillary network were blurred, and a fibrous film was present within limited segments. The drug was administered to these patients in the form of rectal suppositories, in doses of 100 mg per day, subsequent to enemas.

[4] = tested on: cancer affecting the left breast, metastatic tumors
Experimental: During subsequent years, they had undergone radiation therapy and chemotherapy on multiple occasions on account of metastatic tumors.
On account of the severity of the patient's condition, intramuscular administration of the drug in 100 mg doses every two days was initiated.

[5] = tested on: inflammation of the mucosae, chronic tonsillitis; assay: inflammation of the mucosae / chronic tonsillitis (gargling); format: in vivo; details: gargling solution
[6] = tested on: Salmonella typhinurium endotoxin
Experimental: These experiments were performed upon rabbits. Salmonella typhinurium endotoxin which had been purified by Bolvin's method was used in doses of 1 mg/kg according to body weight.
During the second series of experiments, the drug was administered intravenously in doses of 15 mg/kg according to body weight when clinical manifestations appeared (thirty to forty minutes after the commencement of the experiment). […] During the third series of experiments, the drug was administered five minutes after endotoxin inoculation.

[7] = tested on: leucocytes; details: inflammation of the cornea
[8] = tested on: skin diseases; details: 1 to 2 percent solution, two or three days
[9] = tested on: non-specific ulcerative colitis and Crohn's disease
Experimental: These patients complained of periodic worsening of their symptoms over periods of three to five years.
100 mg per day of the drug was administered intravenously to these patients for three days.
On subsequent days, intramuscular administration of the drug was provided once daily, along with a 100 mg rectal suppository.

[10] = tested on: erysipelas; assay: erysipelas
Experimental: During the patient's hospitalization, their condition was determined to be of moderate severity. […] This area was painful and warm when it was palpated. General loss of strength and a higher body temperature, up to 38.6° C., were also observed.
The respective compound was applied to the affected area of the patient's skin in the form of a 1 percent ointment. Suppositories containing 100 mg of the drug were prescribed at the same time.
Subsequently, the patient was treated with the drug in the form of suppositories for five days.
Objective indications included: a congested segment of skin on the front surface of the leg; this area protruded from the surface and it was painful when palpated. Body temperature: 37.8° C. The patient was experiencing generally disagreeable sensations, and intense pain in the vicinity of the inflamed area.
A 4 percent solution of the drug within a 20 percent DMSO solution was applied to the affected cutaneous area.

[11] = tested on: pregnant female rats; details: 60 mg/kg single dose, intraperitoneal
Experimental: Tests pertaining to teratogenicity and embryotoxicity were performed upon fifty-eight pregnant female rats. A single dose (60 mg/kg) was injected intraperitoneally on the first, third, seventh, tenth, fourteenth, or seventeenth days of gestation. These rats were decapitated on the twenty-first day of gestation, and uteri and fetuses were examined.

[12] = tested on: male rats; details: rat, in vivo
Experimental: Blood pressure levels were tape-recorded, by means of an electrical kymograph.
At the same time, electrocardiograms for the second standard position were recorded, along with frequency and depth of breathing by means of a Morey capsule.

[13] = tested on: neutrophils; details: in vivo (whole blood), NST test
[14] = tested on: viral hepatitis B
Experimental: Rectal suppositories containing the drug, which was to be administered in doses of 100 mg per day for ten days, were prescribed for this patient.

[15] = general pharmacological / toxicological assessment; format: in vivo
[16] = tested on: guinea pigs
[17] = tested on: convulsions caused by Corazolum and strychnine; details: 30 and 60 mg/kg
[18] = tested on: macrophages; details: in vitro and in vivo; SV-40 affected cancer cells, glioma cultures
[19] = tested on: AIDS
Experimental: Treatment began with intramuscular administration of 100 mg doses of the drug, once daily.
The daily dosage of the drug was then increased to 400 mg.

[20] = 100 mg per day rectal suppositories
[21] = 15 mg/kg intravenous, when clinical manifestations appeared
[22] = 1 percent ointment plus 100 mg suppositories

## Nc1cccc2c(=O)[nH][nH]c(=O)c12
[1]
  inhibitory or mutagenic activity: did not possess inhibitory or mutagenic activity
[2]; 200 mg in isotonic aqueous solution
  time to improvement, decrease in abdominal pain, cessation of diarrhea: Forty to fifty
[2]; in vivo
  fecal cultures for bacillary dysentery and Salmonella: negative
[2]; one day after admission
  symptoms of intoxication: all of the symptoms of intoxication had disappeared
[3]; [20]
  time until symptoms and pain disappeared: one
[3]; by the seventh day
  complaints: the patients no longer complained of symptoms
[3]; checkups
  rectosigmoidoscopy finding: renewal of normal conditions was observed within the rectal mucosae and within the sigmoid colon
[4]; after first injection, 100 mg intramuscular every two days
  intensity of pain: the intensity of their pain decreased significantly
[4]; alternate days intramuscular
  general condition: a steady improvement in the patient's general condition was observed
[4]; in vivo
  urine, urination, perspiration: their urine became more dense, frequent urination began, and their perspiration acquired a rather foul odor
  vomiting, stools: vomiting began, and the patient's stools were malodorous
[4]; thirteenth and fourteenth days
  edema: had diminished significantly
[4]; twentieth day
  condition and appetite: the patient's condition improved, and their appetite was restored
[5]
  inflammation of the mucosae: favorable results were obtained
[6]; [21]
  diarrhea: diarrhea ceased completely
  time to reduction of intoxication symptoms: five to ten
[6]; 25 mg/kg
  alleviation of intoxication symptoms and diarrhea: complete alleviation of intoxication symptoms and diarrhea
[6]; 15 to 25 mg/kg
  intoxication symptoms (conclusion): prevent or eliminate intoxication symptoms
[6]; drug five minutes after endotoxin, third series
  alleviation of symptoms: partial alleviation of symptoms
[7]
  leucocyte adhesion properties and chemotaxis: An increase in leucocyte adhesion properties and intensification of chemotaxis
[8]
  elimination of symptoms: sufficient to eliminate symptoms of various diseases
Anhydrous conditions
  storage period (stable): > 1 year
Aqueous solution
  expiration period: > ten to twenty
[9]; 100 mg per day intravenous
  time until abdominal and joint pain lessened: Thirty
[9]; first three days
  frequency of defecation: frequency of defecation was reduced
[9]; fourteenth day
  frequency of defecation: once or twice
[9]; in vivo
  rectosigmoidoscopy finding: did not reveal the presence of pus or blood, although traces of an inflammatory process were observed within mucous membranes
[9]; sixth day
  frequency of defecation: two or three
  pain and skin eruptions: They were no longer experiencing pain, their skin eruptions had disappeared
[10]; [22]
  time until congestion and edema had diminished: twenty-four
  time until pain became less intense: five to six
[10]; by the end of the sixth day
  difficulties: the patient no longer cited difficulties
[11]
  fetal abnormalities: No fetal abnormalities were found
[12]
  average fluctuations in blood pressure levels in comparison with initial levels: 2.79±0.72
  time to return of blood pressure to initial level: thirty
[12]; iv
  rise in blood pressure in relation to the initial level: 1.57±5.93%
[13]
  rate at which superoxide radicals formed: an increase in the rate at which superoxide radicals formed
[14]; [20]
  time to improvement (lethargy, pain disappeared): third
  time to normal biochemical blood data: tenth
[14]; six subsequent months
  chronic development of the process: absence of chronic development of the process
[14]; tenth day
  bile pigments reaction: negative
  ultrasound examination of liver: No pathological conditions affecting the liver were observed
[14]; volunteers, 2 to 5 mg/kg per day, initial phase of chronic stage
  symptoms and hepatic functions: symptoms were eliminated and previously impaired hepatic functions were restored
[15]; acceptable dosages
  toxicity: wholly non-toxic
[15]; determined experimentally
  level of pharmacological activity: higher level of pharmacological activity
[16]; even large doses
  erythema at the site of administration: Erythema was not encountered
[16]; subcutaneous or oral administration
  indications of allergies: no indications of allergies were observed
[17]
  prevention of convulsions: did not prevent convulsions
[18]
  transformation of macrophages into killer cells: transformation of a certain portion of macrophages into killer cells
[19]; 100 mg intramuscular once daily, three days
  therapeutic effects: no therapeutic effects had been observed
[19]; 5 to 15 mg/kg daily, extended period
  complications of AIDS: significant prevention or reduction of complications
[19]; continued daily administration
  further symptoms: further symptoms of the disease did not appear
[19]; daily dose doubled
  therapeutic action: still not observable
[19]; standard doses for inflammatory diseases
  effectiveness of standard doses: limited effectiveness
